The numbers were not newly measured in US20090270438A1, “Novel compositions and formulations” (priority 2006, published 2009), which cites them from elsewhere.

The pKa is the pH at which an ionisable group is half protonated.

For the series the following is noted: Pharmaceutical Codex.

SMILES strings stand for the structures.

As for `COC12CCC3(CC1C(C)(O)C(C)(C)C)C1Cc4ccc(O)c5c4C3(CCN1CC1CC1)C2O5` (stereo not shown) [buprenorphine, Buprenorphine], the pKa was 8.5.
